These results are taken from PMC3913610, “Antitumor Activity and Induction of TP53-Dependent Apoptosis toward Ovarian Clear Cell Adenocarcinoma by the Dual PI3K/mTOR Inhibitor DS-7423” (PLoS ONE, 2014).

In data set [1] the test system is TP53-regulated genes in OVMANA and OVISE cells. The data set is described as follows: Semi-quantitative RT-PCR of TP53 target genes. It is filed as cell-based. From the text: Total RNAs of these cells were extracted with the RNeasy Mini Kit according to the manufacturer's instructions (QIAGEN, Valencia, CA). cDNAs were synthesized from total RNAs by using the Super Script III First-strand Synthesis SuperMix (Invitrogen, Carlsbad, CA). The exponential phase of the RT-PCR occurred between 15–30 cycles, and these cycles were monitored to allow semi-quantitative comparisons among the cDNAs developed from identical reactions. The primers and conditions for the amplification of p53AIP1, p21, and GAPDH sequences were described previously. The PCR primers for PUMA were 5′-[…]-3′ (forward) and 5′-[…] CTC-3′ (reverse). The primers for p53R2, TIGAR, GLS2, GADD45, 14-3-3 sigma and PAI-1 were described previously [30]–[35]. Each PCR regimen involved a 2-min initial denaturation step (94°C), which was followed by 15–30 cycles at 94°C for 30 s, then at 55°C for 30 s, and finally, at 72°C for 30 s using a Thermal Cycler Gene Atlas instrument (ASTEC, Fukuoka, Japan).

For the next data set, the system named is OVISE cells. The data set is described as follows: Proliferation (MTT/WST-8) assay. It is filed as cell-based. The settings on record: siRNA to TP53, MTT assay. On the procedure:
Assays of the suppression of cell proliferation were performed with the Cell Counting Kit-8 using the tetrazolium salt WST-8 [2-(2-methoxy-4-nitrophenyl)-3-(4-nitrophenyl)-5-(2,4-disulfophenyl)-2H-tetrazolium, monosodium salt] (Dojindo, Tokyo, Japan) for the methyl thiazolyl tetrazolium (MTT) assay. […] Proliferation was quantified by monitoring the changes in the absorbance at 450 nm, which were normalized relative to the absorbance of cell cultures treated with DMSO alone.
(Tetrazolium assays rely on reduction of a dye to a coloured formazan, in cell work by metabolically active cells.)

The test system of another data set is TOV-21G xenografts. The data set is described as follows: Tumor xenograft in nude mice. It is filed as in vivo. From the text: (§1) Specific pathogen-free female nude mice (BALB/cAJcl-nu/nu), 6 weeks old, were purchased from CLEA Japan, Inc (Tokyo, Japan). Subcutaneous xenograft tumors in the mice were established by the injection of a 100-μL suspension containing 5×10^6 cells of the TOV-21, RMG-I, or ES-2 lines in PBS. Tumors were removed after exponential growth, cut into 3-mm pieces, and transplanted subcutaneously into other mice for RMG-I cells. DS-7423 was suspended in 0.5 w/v% Methyl Cellulose 400 solution (Wako Pure Chemical Industries, Ltd.) Oral daily administration of DS-7423 started 8–22 days later, following the injection of the cells (5–6×10^6 cells/0.1 mL). One week after tumor transplantation, mice were assigned randomly to one of the […] treatment regimens: (1) non-treated control, (2) DS-7423 (1.5 mg/kg), (3) DS-7423 (3 mg/kg), and (4) DS-7423 (6 mg/kg). Each treatment group consisted of five mice. DS-7423 was injected orally (p.o.) once a day. Tumor volumes (in mm^3) were calculated by the formula: ([major axis] × [minor axis]^2/2). After the treatment, the tumors were removed and analyzed by western blotting. Tumor weight (wet weight) was measured, and the average weight was calculated for each group.

In a further data set the test system is RMG-I xenografts. Briefly: Tumor xenograft in nude mice. Format: in vivo.
Text: as §1

In a further data set the test system is ES-2 xenografts. The data set is described as follows: Tumor xenograft in nude mice. It is filed as in vivo.
Text: as §1
Supplementary file pone.0087220.s002.pptx: Figure S2 In vivo effect of DS-7423 in nude mice. […] The levels of p-Akt (Thr-308) and p-S6 (Ser-240/244) were assessed. […]

For data set [2], the system named is phosphorylation of AKT, S6, FOXO1/3a in OCCA cells. The data set is described as follows: Immunoblotting of PI3K/mTOR signaling in OCCA cells. Format: cell-based. Conditions: these doses and higher; OCCA cells. From the text: Signals were detected using BioRAD western blotting systems (BioRAD, Hercules, CA) with the detection reagents ECL advance and ECL select (GE Healthcare, Piscataway, NJ).

Each structure is given as a SMILES string.

In the case of `CC(=O)N1CCN(c2nc3c(N4CCOCC4)nc(-c4cnc(N)nc4)nc3n2CC(F)(F)F)C[C@H]1C` [DS-7423], the “expression of p21” value in data set [1] (39, 156, and 2,500 nM, 24 h) is “did not induce”. The “expression of GADD45” value in data set [1] (OVISE cells) was “significantly induced”. For the same molecule, the “doses inducing expression of p53AIP1 and PUMA” value in data set [1] (OVMANA and OVISE cells, 24 h) is at least 39 nM. The “expression of TIGAR” value in data set [1] (OVMANA cells) is listed as “decreased”. Also, the “anti-proliferative effect when combined with knockdown of TP53” value in the data set on OVISE cells was “significantly reduced”. Also, the “adverse effects, including body weight loss of more than 10%” value is recorded as “No significant adverse effects” with TOV-21G xenografts (TOV-21G xenograft mice, oral daily 1.5, 3 or 6 mg/kg) and “No significant adverse effects” with RMG-I xenografts (RMG-I xenograft mice, oral daily 1.5, 3 or 6 mg/kg). Further, the “levels of p-AKT (Thr308) and p-S6 (Ser240/244) in xenografts” value is listed as “suppressed” in the data set with TOV-21G xenografts (TOV-21G xenografts, 2 and 6 h after last administration); “suppressed” in the data set on RMG-I xenografts (RMG-I xenografts, 2 and 6 h after last administration). The “tumor growth of xenografts” value with TOV-21G xenografts (TOV-21G, oral daily 1.5, 3 or 6 mg/kg, dose-dependent) was “significantly suppressed”; with RMG-I xenografts (RMG-I, oral daily 1.5, 3 or 6 mg/kg, dose-dependent), “significantly suppressed”. Besides, in the data set on ES-2 xenografts, the “anti-tumor effect compared with TOV-21G and RMG-I xenografts” value is given as “weaker”. The “estimated tumor volumes compared to the control” value in the data set with ES-2 xenografts (6 mg/kg daily, totally 8 times) is “smaller”. Moreover, the “doses suppressing phosphorylation of AKT (Thr308 and Ser473) and S6 (Ser235/236 and Ser240/244)” value in data set [2] is 39 to 156 nM.
